The test system of the assay is Eotaxin-3 (CCL26) release in human whole blood stimulated with IL-4. Description: Human whole blood eotaxin-3 assay (IL-4 stimulated eotaxin-3 release). It is filed as cell-based. The conditions noted are these: Homo sapiens, 48 h, human whole blood stimulated with recombinant human IL-4, 48 h; inhibition of eotaxin-3 release; given for test compounds with >80% Emax; geometric mean. Summed up:
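Lithium-heparin human whole blood was preincubated with compound (4-fold serial dilution, 0.5% DMSO final) for 2 h at 37° C, then stimulated with recombinant human IL-4 at […] final for 48 h. Eotaxin-3 (CCL26) in the supernatant was measured by MSD immunoassay.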
Turning to `CNc1cc(=O)n(-c2ccnc3c2cc([C@H](C)N2CCC(c4c(C)cc(C(=O)N(C)C)cc4F)CC2)n3C)cc1F` [Example 1m131, (S)-3-fluoro-4-(1-(1-(4-(5-fluoro-4-(methylamino)-2-oxopyridin-1 (2H)-yl)-1-methyl-1H-pyrrolo[2,3-b]pyridin-2-yl)ethyl)piperidin-4-yl)-N,N,5-trimethylbenzamide], the EC50 (commonly the midpoint of the concentration-response curve) was determined as 891 nM. Take `Cc1cc(C(=O)N(C)C)cc(F)c1C1=CCN([C@@H](C)c2cc3c(-n4cc(F)c(N)c(F)c4=O)ccnc3n2C)CC1` [Example 1m132, (S)-4-(1-(1-(4-(4-amino-3,5-difluoro-2-oxopyridin-1 (2H)-yl)-1-methyl-1H-pyrrolo[2,3-b]pyridin-2-yl)ethyl)-1,2,3,6-tetrahydropyridin-4-yl)-3-fluoro-N,N,5-trimethylbenzamide]: the EC50 amounted to 10.8 nM. `CN(C)C(=O)c1cc(F)c(C2CCN(Cc3cc4c(-n5cc(F)c6c(c5=O)CCN6)ccnc4n3C)CC2)c(F)c1` [Example 1m133, 3,5-difluoro-4-(1-((4-(7-fluoro-4-oxo-1,2,3,4-tetrahydro-5H-pyrrolo[3,2-c]pyridin-5-yl)-1-methyl-1H-pyrrolo[2,3-b]pyridin-2-yl)methyl)piperidin-4-yl)-N,N-dimethylbenzamide]: the EC50 stood at 75.2 nM. Turning to `CNc1c(F)cn(-c2ccnc3c2cc(CN2CCC(c4c(F)cc(C(=O)N(C)C)cc4F)CC2)n3C)c(=O)c1F` [Example 1m136, 4-(1-((4-(3,5-difluoro-4-(methylamino)-2-oxopyridin-1 (2H)-yl)-1-methyl-1H-pyrrolo[2,3-b]pyridin-2-yl)methyl)piperidin-4-yl)-3,5-difluoro-N,N-dimethylbenzamide], the EC50 amounted to 48.1 nM. Regarding `CNc1cc(=O)n(-c2ccnc3c2cc([C@H](C)N2CC=C(c4c(C)cc(C(=O)N(C)C)cc4F)CC2)n3C)cc1OC` [Example 1m137, (S)-3-fluoro-4-(1-(1-(4-(5-methoxy-4-(methylamino)-2-oxopyridin-1 (2H)-yl)-1-methyl-1H-pyrrolo[2,3-b]pyridin-2-yl)ethyl)-1,2,3,6-tetrahydropyridin-4-yl)-N,N,5-trimethylbenzamide], the EC50 was 589 nM. For `CNc1ccn(-c2ccnc3c2cc([C@H](C)N2CC=C(c4c(C)cc(C(=O)N(C)C)cc4F)CC2)n3C)c(=O)c1OC` [Example 1m138, (S)-3-fluoro-4-(1-(1-(4-(3-methoxy-4-(methylamino)-2-oxopyridin-1 (2H)-yl)-1-methyl-1H-pyrrolo[2,3-b]pyridin-2-yl)ethyl)-1,2,3,6-tetrahydropyridin-4-yl)-N,N,5-trimethylbenzamide], the EC50 was 229 nM. The value for `CNc1ccn(-c2ccnc3c2cc(C(C)N2CC=C(c4c(C)cc(C(=O)N(C)C)cc4F)C(F)(F)C2)n3C)c(=O)c1` (stereo not drawn) [Example 1m139, 4-(3,3-difluoro-1-(1-(1-methyl-4-(4-(methylamino)-2-oxopyridin-1 (2H)-yl)-1H-pyrrolo[2,3-b]pyridin-2-yl)ethyl)-1,2,3,6-tetrahydropyridin-4-yl)-3-fluoro-N,N,5-trimethylbenzamide] was 50.2 nM; that for `CNc1c(F)cn(-c2ccnc3c2cc([C@H](C)N2CC=C(c4c(C)cc(C(=O)N(C)C)cc4F)CC2)n3C)c(=O)c1F` [Example 1m140, (S)-4-(1-(1-(4-(3,5-difluoro-4-(methylamino)-2-oxopyridin-1 (2H)-yl)-1-methyl-1H-pyrrolo[2,3-b]pyridin-2-yl)ethyl)-1,2,3,6-tetrahydropyridin-4-yl)-3-fluoro-N,N,5-trimethylbenzamide] was 16.1 nM; that for `CN(C)C(=O)c1ccc(C2=CCN(Cc3cc4c(-n5ccc6c(c5=O)CCN6)ccnc4n3C)CC2)c(OC(F)(F)F)c1` [Example 1m146, NN-dimethyl-4-(1-((1-methyl-4-(4-oxo-1,2,3,4-tetrahydro-5H-pyrrolo[3,2-c]pyridin-5-yl)-1H-pyrrolo[2,3-b]pyridin-2-yl)methyl)-1,2,3,6-tetrahydropyridin-4-yl)-3-(trifluoromethoxy)benzamide] was 156 nM.

(Values after patent US20260001893A1, “SMALL MOLECULE MODULATORS OF STAT6” (Gilead Sciences, Inc., priority 2024, published 2026).)
